According to patent US20260234157A1, “COMPOUND AND METHOD FOR TARGETED DEGRADATION OF ANDROGEN RECEPTOR” (Gan & Lee Pharmaceuticals Co., Ltd., priority 2023, published 2026):
Positions count from the first letter of the chain named. Where two headings read alike, the source gives them in different places.

Experiments:
AR protein [1] = target: T1, AR protein (Homo sapiens, UniProt P10275); assay: Degradation of AR protein in VCaP cells (Western blot); format: cell-based; settings: 8 hours; for inhibition at 0.01 µM: read-out: Degradation rate of the AR protein in VCaP cells, 10 nM (%); for inhibition at 0.1 µM: read-out: Degradation rate of the AR protein in VCaP cells, 100 nM (%)
T1 construct: degradation activity of the compounds disclosed in the present disclosure on AR protein in VCaP cells; host or cells: VCaP
T1 sequence (P10275 1-920): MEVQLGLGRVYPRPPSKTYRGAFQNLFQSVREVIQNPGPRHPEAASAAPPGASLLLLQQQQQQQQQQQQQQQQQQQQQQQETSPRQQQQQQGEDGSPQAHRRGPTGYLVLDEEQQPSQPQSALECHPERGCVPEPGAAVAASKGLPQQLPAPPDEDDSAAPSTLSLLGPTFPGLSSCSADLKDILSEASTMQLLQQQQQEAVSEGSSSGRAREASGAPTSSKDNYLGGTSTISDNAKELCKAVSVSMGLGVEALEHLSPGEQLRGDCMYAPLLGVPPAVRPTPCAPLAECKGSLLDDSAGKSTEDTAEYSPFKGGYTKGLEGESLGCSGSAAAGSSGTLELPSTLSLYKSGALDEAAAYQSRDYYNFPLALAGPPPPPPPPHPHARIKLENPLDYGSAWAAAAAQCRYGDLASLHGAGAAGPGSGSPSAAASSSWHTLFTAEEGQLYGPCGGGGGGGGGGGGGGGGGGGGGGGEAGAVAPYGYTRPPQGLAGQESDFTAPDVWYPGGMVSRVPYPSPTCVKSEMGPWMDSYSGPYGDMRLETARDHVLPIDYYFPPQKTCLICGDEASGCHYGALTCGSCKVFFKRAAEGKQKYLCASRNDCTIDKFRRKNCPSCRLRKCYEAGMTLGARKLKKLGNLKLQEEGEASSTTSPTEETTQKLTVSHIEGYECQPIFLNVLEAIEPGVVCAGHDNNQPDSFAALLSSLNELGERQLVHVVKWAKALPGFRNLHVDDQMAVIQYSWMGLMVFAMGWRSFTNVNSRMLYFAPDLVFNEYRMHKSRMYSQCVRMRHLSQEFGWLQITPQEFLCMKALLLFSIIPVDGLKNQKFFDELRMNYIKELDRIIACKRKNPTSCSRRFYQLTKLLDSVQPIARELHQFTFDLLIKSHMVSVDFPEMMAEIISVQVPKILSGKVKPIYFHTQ
Method: The degradation activity of the compounds disclosed in the present disclosure on AR protein in VCaP cells (cell source: ATCC)
(§1) Corresponding solvent controls were also set and cultured for 8 hours. After 8 hours of cultivation, the culture medium was removed and the cells were washed with PBS. RIPA lysis buffer containing 1% Protease Inhibitor Cocktail was added, and the total protein extract was obtained by lysis and centrifugation. The protein concentration in the extract was detected by BCA method. Protein electrophoresis was performed using SDS-PAGE, followed by transfer of the protein onto a PVDF (Millipore Sigma catalog No. PSRP010R5) membrane at 100V constant voltage for 60 minutes. The PVDF membrane was then placed in a 1×TBST solution with 5% milk and blocked at room temperature for 1 hour. […] The primary antibody solution was discarded and the PVDF membrane was washed three times with 1×TBST for 5 minutes/time. […] The secondary antibody solution was discarded and the PVDF membrane was washed three times with 1×TBST for 5 minutes/time. Western blot imaging was performed by using a dual color infrared laser imaging system (Licor catalog No. Odyssey CLX). Bands were analyzed in grayscale using Image Studio software. For each sample, GAPDH protein bands were detected as internal reference. The degradation rates of the AR protein for the compounds and the positive control sample were calculated based on grayscale of the protein bands.

AR protein [2] = target: T2, AR protein (Homo sapiens, UniProt P10275, T878A); assay: Degradation of AR protein in LNCaP cells (Western blot); format: cell-based; settings: for inhibition at 0.01 µM: read-out: Degradation rates of the AR protein in LNCaP cells, 10 nM (%); for inhibition at 0.1 µM: read-out: Degradation rates of the AR protein in LNCaP cells, 100 nM (%)
T2 construct: degradation activity of the compounds disclosed in the present disclosure on AR protein in LNCaP cells; host or cells: LNCaP FGC
T2 sequence (P10275 1-920 T878A): T1 sequence (P10275 1-920) with T878A
Method: The degradation activity of the compounds disclosed in the present disclosure on AR protein in LNCaP cells (cell source: ATCC)
as §1

[3] = LNCaP cells, compound 10 nM, 8 hours, Western blot grayscale, GAPDH internal reference
[4] = LNCaP cells, compound 100 nM, 8 hours, Western blot grayscale, GAPDH internal reference

| Compound | inhibition at 0.01 µM (AR protein [1]; compound at 10 nM) | inhibition at 0.1 µM (AR protein [1]; compound at 100 nM) | inhibition at 0.01 µM (AR protein [2]; [3]) | inhibition at 0.1 µM (AR protein [2]; [4]) | inhibition at 0.01 µM (AR protein [2]; LNCaP, 8 h) | inhibition at 0.1 µM (AR protein [2]; LNCaP, 8 h) | Degradation rate of the AR protein in VCaP cells, 10 nM (%) (AR protein [1]; compound at 10 nM) | Degradation rate of the AR protein in VCaP cells, 100 nM (%) (AR protein [1]; compound at 100 nM) |
| --- | --- | --- | --- | --- | --- | --- | --- | --- |
| N#Cc1ccc(O[C@H]2CC[C@H](NC(=O)c3ccc(N4CCC(CN5CC6(CCc7cc8c(cc7O6)C(=O)N(C6CCC(=O)NC6=O)C8=O)C5)CC4)nn3)CC2)cc1Cl (some centres unmarked) [Compound 1] | 65% | 79% | 44% | 82% |  |  |  |  |
| COC1(CN2CC3(CCc4cc5c(cc4O3)C(=O)N(C3CCC(=O)NC3=O)C5)C2)CCN(c2ccc(C(=O)N[C@H]3CC[C@H](Oc4ccc(C#N)c(Cl)c4)CC3)nn2)CC1 (some centres unmarked) [Compound 9] | 87% | 82% | 56% | 66% |  |  |  |  |
| N#Cc1ccc(O[C@H]2CC[C@H](NC(=O)c3ccc(N4CCC5(CC4)CC(N4CCC6(CCc7cc8c(cc7O6)C(=O)N(C6CCC(=O)NC6=O)C8=O)CC4)C5)nn3)CC2)cc1Cl (some centres unmarked) [Compound 31] | 67% | 70% | 52% | 69% |  |  |  |  |
| N#Cc1ccc(O[C@H]2CC[C@H](NC(=O)c3ccc(N4CC(N5CCC6(CCc7cc8c(cc7O6)CN(C6CCC(=O)NC6=O)C8=O)CC5)C4)nn3)CC2)cc1Cl (some centres unmarked) [Compound 42] | 45% | 33% |  |  | 29% | 49% |  |  |
| N#Cc1ccc(O[C@H]2CC[C@H](NC(=O)c3ccc(N4CCC5(CC4)CC(N4CCC6(CC4)COc4cc7c(cc46)C(=O)N(C4CCC(=O)NC4=O)C7=O)C5)nn3)CC2)cc1Cl (some centres unmarked) [Compound 47] | 82% | 79% | 54% | 67% |  |  |  |  |
| N#Cc1ccc(O[C@H]2CC[C@H](NC(=O)c3ccc(N4CCC(CN5CCC6(CC5)COc5cc7c(cc5O6)CN(C5CCC(=O)NC5=O)C7=O)CC4)nn3)CC2)cc1Cl (some centres unmarked) [Compound 76] | 84% | 76% | 74% | 74% |  |  |  |  |
| N#Cc1ccc(O[C@H]2CC[C@H](NC(=O)c3ccc(N4CCC(CN5CCC6(CC5)Cc5cc7c(cc5O6)C(=O)N(C5CCC(=O)NC5=O)C7=O)CC4)nn3)CC2)cc1Cl (some centres unmarked) [Compound 78] | 72% | 57% | 67% | 70% |  |  |  |  |
| N#Cc1ccc(O[C@H]2CC[C@H](NC(=O)c3ccc(N4CC(N5CCC6(CC5)Cc5cc7c(cc5O6)C(=O)N(C5CCC(=O)NC5=O)C7=O)C4)nn3)CC2)cc1Cl (some centres unmarked) [Compound 79] | 36% | 42% |  |  | 23% | 28% |  |  |
| N#Cc1ccc(O[C@H]2CC[C@H](NC(=O)c3ccc(N4CCC5(CCC(N6CCC7(CC6)COc6c7ccc7c6CN(C6CCC(=O)NC6=O)C7=O)CC5)CC4)nn3)CC2)cc1Cl (some centres unmarked) [Compound 137] | 80% | 90% | 68% | 21% |  |  |  |  |
| N#Cc1ccc(O[C@H]2CC[C@H](NC(=O)c3ccc(N4CC5(CC(N6CCC7(CC6)COc6c7ccc7c6C(=O)N(C6CCC(=O)NC6=O)C7=O)C5)C4)nn3)CC2)cc1Cl (some centres unmarked) [Compound 140] |  |  |  |  |  |  | −14% | 38% |
| N#Cc1ccc(O[C@H]2CC[C@H](NC(=O)c3ccc(N4CCC(N5CC(N6CCC7(CC6)COc6c7ccc7c6CN(C6CCC(=O)NC6=O)C7=O)C5)CC4)nn3)CC2)cc1Cl (some centres unmarked) [Compound 144] | 82% | 86% | 68% | 39% |  |  |  |  |
| CCOC1(CN2CCC3(CC2)COc2c3ccc3c2CN(C2CCC(=O)NC2=O)C3=O)CCN(c2ccc(C(=O)N[C@H]3CC[C@H](Oc4ccc(C#N)c(Cl)c4)CC3)nn2)CC1 (some centres unmarked) [Compound 155] | 58% | 80% | 29% | 1% |  |  |  |  |
| N#Cc1ccc(O[C@H]2CC[C@H](NC(=O)c3ccc(N4CCC(C#N)(CN5CCC6(CC5)COc5c6ccc6c5CN(C5CCC(=O)NC5=O)C6=O)CC4)nn3)CC2)cc1Cl (some centres unmarked) [Compound 156] | 37% | 75% | 52% | 53% |  |  |  |  |
| N#Cc1ccc(O[C@H]2CC[C@H](NC(=O)c3cnc(N4CCC(F)(CN5CCC6(CC5)COc5c6ccc6c5CN(C5CCC(=O)NC5=O)C6=O)CC4)cn3)CC2)cc1Cl (some centres unmarked) [Compound 157] | 46% | 84% | 51% | 52% |  |  |  |  |
| N#Cc1ccc(O[C@H]2CC[C@H](NC(=O)c3cnc(N4CCC(F)(CN5CCC6(CC5)COc5c6ccc6c5CN(C5CCC(=O)NC5=O)C6=O)CC4)nc3)CC2)cc1Cl (some centres unmarked) [Compound 158] | 62% | 81% | 43% | 37% |  |  |  |  |
| N#Cc1ccc(O[C@H]2CC[C@H](NC(=O)c3ccc(N4CC5(CCC(N6CCC7(CC6)COc6c7ccc7c6CN(C6CCC(=O)NC6=O)C7=O)CC5)C4)nn3)CC2)cc1Cl (some centres unmarked) [Compound 168] | 76% | 77% | 70% | 26% |  |  |  |  |
| N#Cc1ccc(O[C@H]2CC[C@H](NC(=O)c3ccc(N4CCC(N5CCC6(CC5)COc5c6ccc6c5CN(C5CCC(=O)NC5=O)C6=O)CC4)nn3)CC2)cc1Cl (some centres unmarked) [Compound 169] | 79% | 82% |  |  | 75% | 53% |  |  |
| N#Cc1ccc(O[C@H]2CC[C@H](NC(=O)c3ccc(N4CCC5(CC4)CC(N4CCC6(CC4)COc4c6ccc6c4CN(C4CCC(=O)NC4=O)C6=O)C5)nn3)CC2)cc1Cl (some centres unmarked) [Compound 184] |  |  | 79% | 41% |  |  |  |  |
